What was measured:
[1] = tested on: neuronal-uptake of serotonin; assay: inhibition of the neuronal-uptake of serotonin (carbon-14 content of the spleen); assay type: in vivo; conditions: Mus musculus, 1 h, at 50 mg/kg oral, male mice, serotonin-14C i.v. one hour after dosing, vs vehicle control, read-out: % Inhibition of Amine Uptake, Serotonin
Protocol: (§1) Int. Pharmacoldyn 225, 317-329 (1977)].
(§2) According to this procedure, male mice weighing approximately 25 grams are fasted overnight, then groups of five or more mice are dosed with the test compound or methocel vehicle at 50 mg/kg by oral route. After an interval of one hour, the mice are given an intravenous injection of a saline solution containing 0.5 μCi of norepinephrine-^3 H, 0.5 μCi of serotonin^14 C, and 1 mg/ml of ascorbic acid. The mice are then sacrificed about 15 minutes later, their hearts and spleens rinsed and weighed, and dissolved in a tissue solubilizer. The tritium content of the hearts and carbon-14 content of the spleen are determined by scintillation counting. The percent inhibition of uptake in comparison with the vehicle control group is then recorded.

[2] = tested on: neuronal-uptake of norepinephrine; assay: inhibition of the neuronal-uptake of norepinephrine (tritium content of the hearts); assay type: in vivo; conditions: Mus musculus, 1 h; at 50 mg/kg oral, male mice, heart; norepinephrine-3H i.v. one hour after dosing; vs vehicle control; read-out: % Inhibition of Amine Uptake, Norepinephrine
Protocol: as §1, §2

Q: Which results are given for `COc1ccc(C2OC3(CCNCC3)N3CCCCC23)cc1` (stereo not shown) [Example 14, Hexahydro-1-(4-methoxyphenyl)spiro[3H-oxazolo[3,4-a]pyridine-3,4'-piperidine]]?
A: inhibition at 50 mg/kg [1]: 89%; inhibition at 50 mg/kg [2]: 57%

Q: How did the inhibition at 50 mg/kg [1] turn out when `CN1CCC2(CC1)OC(c1ccccc1)C1CCCCN12` (stereo not shown) [Example 3, Hexahydro-1'-methyl-1-phenylspiro[3H-oxazolo[3,4-a]pyridine-3,4'-piperidine]] was run?
A: 73%

Q: What about the inhibition at 50 mg/kg [2] of the same compound?
A: 73%

Q: For `FC(F)(F)c1cccc(C2OC3(CCNCC3)N3CCCCC23)c1` (stereo not shown) [Example 9, hexahydro-1-[3-(trifluoromethyl)phenyl]spiro[3H-oxazolo[3,4-a]pyridine-3,4'piperidine]], which inhibition at 50 mg/kg [1] is on record?
A: 86%

Q: And the inhibition at 50 mg/kg [2]?
A: 64%

Q: With `c1ccc(C2OC3(CCNCC3)N3CCCCC23)cc1` (stereo not shown) [Example 2, Hexahydro-1-phenylspiro[3H-oxazolo[3,4-a]pyridine-3,4'-piperidine]] as the compound, how does the inhibition at 50 mg/kg [1] read?
A: 83%

Q: What about the inhibition at 50 mg/kg [2] of the same compound?
A: 70%

Q: How did the inhibition at 50 mg/kg [1] turn out when `COc1ccccc1C1OC2(CCNCC2)N2CCCCC12` (stereo not shown) [Example 7, hexahydro-1-(2-methoxyphenyl)spiro[3H-oxazolo[3,4-a]pyridine-3,4'-piperidine]] was run?
A: 71%

Q: What about the inhibition at 50 mg/kg [2] of the same compound?
A: 67%

Q: `c1ccc(C2OC3(CCN(CC4CC4)CC3)N3CCCCC23)cc1` (stereo not shown) [Example 15, hexahydro-1'-(cyclopropylmethyl)-1-phenylspiro[3H-oxazolo[3,4-a]pyridine-3,4'-piperidine]] was tested. Which inhibition at 50 mg/kg [1] did it give?
A: 77%

Q: And the inhibition at 50 mg/kg [2]?
A: 62%

Q: With `Fc1cccc(C2OC3(CCNCC3)N3CCCCC23)c1` (stereo not shown) [Example 5, hexahydro-1-(3-fluorophenyl)spiro[3H-oxazolo[3,4-a]pyridine-3,4'-piperidine]] as the compound, how does the inhibition at 50 mg/kg [1] read?
A: 89%

Q: And the inhibition at 50 mg/kg [2]?
A: 70%

Q: What does the source list for `Clc1ccc(C2OC3(CCN(Cc4ccccc4)CC3)N3CCCCC23)cc1` (stereo not shown) [Example 12, hexahydro-1'-benzyl-1-(4-chlorophenyl)spiro[3H-oxazolo[3,4-a]pyridine-3,4'-piperidine]]?
A: inhibition at 50 mg/kg [1]: 84%; inhibition at 50 mg/kg [2]: 59%

Q: What does the source list for `Fc1cccc(C2OC3(CCN(Cc4ccccc4)CC3)N3CCCCC23)c1` (stereo not shown) [Example 4, hexahydro-1'-benzyl-1-(3-fluorophenyl)spiro[3H-oxazolo[3,4-a]pyridine-3,4'-piperidine]]?
A: inhibition at 50 mg/kg [1]: 79%; inhibition at 50 mg/kg [2]: 58%

Q: `CN1CCC2(CC1)OC(c1ccc(Cl)cc1)C1CCCCN12` (stereo not shown) [Example 13, hexahydro-1'-methyl-1-(4-chlorophenyl)spiro[3H-oxazolo[3,4-a]pyridine-3,4'-piperidine]] was tested. Which inhibition at 50 mg/kg [1] did it give?
A: 91%

Q: And the inhibition at 50 mg/kg [2]?
A: 77%

Q: Which inhibition at 50 mg/kg [1] does the source give for `Fc1ccc(C2OC3(CCNCC3)N3CCCCC23)cc1` (stereo not shown) [Example 11, Hexahydro-1-(4-fluorophenyl)spiro[3H-oxazolo[3,4-a]pyridine-3,4'-piperidine]] here?
A: 89%

Q: What about the inhibition at 50 mg/kg [2] of the same compound?
A: 73%
